The results in this text go back to article PMC5542402 (Combinatorial chemistry & high throughput screening, 2016).

The target of the assay is PhoP (Mycobacterium tuberculosis, UniProt P71814). It counts as binding.

For `[N-]=[N+]=Nc1ccc(C(=O)CSC[C@H](NC(=O)CC[C@H](N)C(=O)O)C(=O)NCC(=O)O)cc1` [NCGC00093547], the affinity, expressed as Kd, was 12.6 µM.
